Assay results: PubChem BioAssay (NCI)
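Values below derive from 48-hour exposures of cells grown in 96-well plates, with endpoints linearly interpolated between the two concentrations bracketing the appropriate inhibition level. TGI: concentration producing complete growth inhibition.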

Assays:
Assay in all cases: NCI tumour cell line growth inhibition, 48 h
A549 NSCLC = system: A549 NSCLC
786-0 renal = system: 786-0 renal
OVCAR-8 ovarian = system: OVCAR-8 ovarian
HOP-18 NSCLC = system: HOP-18 NSCLC
HT29 colon = system: HT29 colon
IGROV1 ovarian = system: IGROV1 ovarian
LXFL 529 NSCLC = system: LXFL 529 NSCLC
OVCAR-4 ovarian = system: OVCAR-4 ovarian
MDA-MB-435 = system: MDA-MB-435
MDA-MB-231 breast = system: MDA-MB-231 breast

| SMILES | TGI (A549 NSCLC) [µM] | TGI (786-0 renal) [µM] | TGI (OVCAR-8 ovarian) [µM] | TGI (HOP-18 NSCLC) [µM] | TGI (HT29 colon) [µM] | TGI (IGROV1 ovarian) [µM] | TGI (LXFL 529 NSCLC) [µM] | TGI (OVCAR-4 ovarian) [µM] | TGI (MDA-MB-435) [µM] | TGI (MDA-MB-231 breast) [µM] |
| --- | --- | --- | --- | --- | --- | --- | --- | --- | --- | --- |
| O=S(=O)(O)c1ccc([Se][Se]c2ccc(S(=O)(=O)O)cc2)cc1 | > 100 | > 100 | > 100 | > 100 | > 100 | > 100 | > 100 | > 100 |  |  |
| O=C(NNC(=O)/C(=C/c1cccc([N+](=O)[O-])c1)NC(=O)c1ccccc1)Nc1ccc(Cl)cc1 | 31.4 | 29.1 | 62.1 | 34.6 | 27.8 | 27.4 | 23.5 | 26.9 |  |  |
| O=C1/C(=C/c2ccc(C(=O)O)cc2)CNC/C1=C\c1ccc(C(=O)O)cc1 | > 100 | > 100 | > 100 | > 100 | > 100 | > 100 | > 100 | > 100 |  |  |
| COc1ccc(/C=C2\CCC(C)(CN(C)C)C2=O)cc1Br (configuration not stated) | > 100 | 34.9 | 32.9 | > 100 | 49.6 | 40.2 | 31.8 | 35.9 | 44 | 68.1 |
| CCCCCCCCCCCCCC(=O)OCC1OC(=O)C(O)C1O (configuration not stated) | > 100 | > 100 | > 100 | > 100 | > 100 | > 100 | > 100 | > 100 |  |  |
